Columns and labels:
Assay in all cases: relative viability (nuclei count vs DMSO), 5 days (fraction); higher = more cells survive
201T = test system: 201T
In short: (§1)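 For relative viability, nuclei counts in treated wells were divided by those in vehicle wells. Lung cancer cell lines had been pin-tool dosed in 1536-well plates the day after seeding and cultured for 5 days, then fixed and stained in one step (final 0.05% Triton X-100, 1% formaldehyde, 1 ug/ml Hoechst) and imaged at 4×. Doses were one drug alone or a fixed anchor-drug dose plus five library-drug doses (not always all listed) in √10 steps, and values are duplicate-plate medians.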

ABC-1 = test system: ABC-1
In short: as §1

EPLC-272H = test system: EPLC-272H
In short: as §1

HCC-78 = test system: HCC-78
In short: as §1

LCLC-103H = test system: LCLC-103H
In short: as §1

LCLC-97TM1 = test system: LCLC-97TM1
In short: as §1

LOU-NH91 = test system: LOU-NH91
In short: as §1

NCI-H1355 = test system: NCI-H1355
In short: as §1

NCI-H1651 = test system: NCI-H1651
In short: as §1

NCI-H1734 = test system: NCI-H1734
In short: as §1

NCI-H1792 = test system: NCI-H1792
In short: as §1

NCI-H1793 = test system: NCI-H1793
In short: as §1

NCI-H1915 = test system: NCI-H1915
In short: as §1

NCI-H1993 = test system: NCI-H1993
In short: as §1

NCI-H2228 = test system: NCI-H2228
In short: as §1

NCI-H460 = test system: NCI-H460
In short: as §1

NCI-H650 = test system: NCI-H650
In short: as §1

NCI-H661 = test system: NCI-H661
In short: as §1

PC-3 [JPC-3] = test system: PC-3 [JPC-3]
In short: as §1

RERF-LC-KJ = test system: RERF-LC-KJ
In short: as §1

SK-MES-1 = test system: SK-MES-1
In short: as §1

SW 1573 = test system: SW 1573
In short: as §1

SMILES: C=C1C(=O)O[C@@H](CCCCCCCC)[C@@H]1C(=O)O [C-75] + CC(=O)c1c(C)c2cnc(Nc3ccc(N4CCNCC4)cn3)nc2n(C2CCCC2)c1=O [Palbociclib] (partner 0.5 µM)
- relative viability (201T; first compound 0.08 µM): 0.377
- relative viability (201T; first compound 0.253 µM): 0.374
- relative viability (201T; first compound 0.8 µM): 0.336
- relative viability (201T; first compound 2.53 µM): 0.3
- relative viability (201T; first compound 8 µM): 0.347
- relative viability (ABC-1; first compound 0.08 µM): 0.711
- relative viability (ABC-1; first compound 0.253 µM): 0.935
- relative viability (ABC-1; first compound 0.8 µM): 0.559
- relative viability (ABC-1; first compound 2.53 µM): 0.494
- relative viability (ABC-1; first compound 8 µM): 0.494
- relative viability (EPLC-272H; first compound 0.08 µM): 0.312
- relative viability (EPLC-272H; first compound 0.253 µM): 0.387
- relative viability (EPLC-272H; first compound 0.8 µM): 0.333
- relative viability (EPLC-272H; first compound 2.53 µM): 0.244
- relative viability (EPLC-272H; first compound 8 µM): 0.365
- relative viability (HCC-78; first compound 0.08 µM): 0.476
- relative viability (HCC-78; first compound 0.253 µM): 0.469
- relative viability (HCC-78; first compound 0.8 µM): 0.514
- relative viability (HCC-78; first compound 2.53 µM): 0.459
- relative viability (HCC-78; first compound 8 µM): 0.461
- relative viability (LCLC-103H; first compound 0.08 µM): 0.447
- relative viability (LCLC-103H; first compound 0.253 µM): 0.428
- relative viability (LCLC-103H; first compound 0.8 µM): 0.499
- relative viability (LCLC-103H; first compound 2.53 µM): 0.353
- relative viability (LCLC-103H; first compound 8 µM): 0.451
- relative viability (LCLC-97TM1; first compound 0.08 µM): 0.225
- relative viability (LCLC-97TM1; first compound 0.253 µM): 0.261
- relative viability (LCLC-97TM1; first compound 0.8 µM): 0.177
- relative viability (LCLC-97TM1; first compound 2.53 µM): 0.18
- relative viability (LCLC-97TM1; first compound 8 µM): 0.239
- relative viability (LOU-NH91; first compound 0.08 µM): 0.534
- relative viability (LOU-NH91; first compound 0.253 µM): 0.536
- relative viability (LOU-NH91; first compound 0.8 µM): 0.504
- relative viability (LOU-NH91; first compound 8 µM): 0.464
- relative viability (NCI-H1355; first compound 0.08 µM): 0.402
- relative viability (NCI-H1355; first compound 0.253 µM): 0.388
- relative viability (NCI-H1355; first compound 0.8 µM): 0.428
- relative viability (NCI-H1355; first compound 2.53 µM): 0.364
- relative viability (NCI-H1355; first compound 8 µM): 0.463
- relative viability (NCI-H1651; first compound 0.08 µM): 0.509
- relative viability (NCI-H1651; first compound 0.253 µM): 0.521
- relative viability (NCI-H1651; first compound 0.8 µM): 0.521
- relative viability (NCI-H1651; first compound 2.53 µM): 0.476
- relative viability (NCI-H1651; first compound 8 µM): 0.55
- relative viability (NCI-H1734; first compound 0.08 µM): 0.34
- relative viability (NCI-H1734; first compound 0.253 µM): 0.315
- relative viability (NCI-H1734; first compound 0.8 µM): 0.36
- relative viability (NCI-H1734; first compound 2.53 µM): 0.254
- relative viability (NCI-H1734; first compound 8 µM): 0.345
- relative viability (NCI-H1792; first compound 0.08 µM): 0.67
- relative viability (NCI-H1792; first compound 0.253 µM): 0.656
- relative viability (NCI-H1792; first compound 0.8 µM): 0.686
- relative viability (NCI-H1792; first compound 2.53 µM): 0.381
- relative viability (NCI-H1792; first compound 8 µM): 0.65
- relative viability (NCI-H1793; first compound 0.08 µM): 0.278
- relative viability (NCI-H1793; first compound 0.253 µM): 0.311
- relative viability (NCI-H1793; first compound 2.53 µM): 0.267
- relative viability (NCI-H1793; first compound 8 µM): 0.306
- relative viability (NCI-H1915; first compound 0.08 µM): 0.515
- relative viability (NCI-H1915; first compound 0.253 µM): 0.556
- relative viability (NCI-H1915; first compound 0.8 µM): 0.546
- relative viability (NCI-H1915; first compound 2.53 µM): 0.472
- relative viability (NCI-H1915; first compound 8 µM): 0.5
- relative viability (NCI-H1993; first compound 0.08 µM): 0.618
- relative viability (NCI-H1993; first compound 0.253 µM): 0.778
- relative viability (NCI-H1993; first compound 0.8 µM): 0.719
- relative viability (NCI-H1993; first compound 2.53 µM): 0.553
- relative viability (NCI-H1993; first compound 8 µM): 0.642
- relative viability (NCI-H2228; first compound 0.08 µM): 0.743
- relative viability (NCI-H2228; first compound 0.253 µM): 0.988
- relative viability (NCI-H2228; first compound 0.8 µM): 0.589
- relative viability (NCI-H2228; first compound 2.53 µM): 0.7
- relative viability (NCI-H2228; first compound 8 µM): 0.681
- relative viability (NCI-H460; first compound 0.08 µM): 0.0813
- relative viability (NCI-H460; first compound 0.253 µM): 0.104
- relative viability (NCI-H460; first compound 0.8 µM): 0.126
- relative viability (NCI-H460; first compound 2.53 µM): 0.132
- relative viability (NCI-H460; first compound 8 µM): 0.155
- relative viability (NCI-H650; first compound 0.08 µM): 0.31
- relative viability (NCI-H650; first compound 0.253 µM): 0.27
- relative viability (NCI-H650; first compound 0.8 µM): 0.36
- relative viability (NCI-H650; first compound 2.53 µM): 0.283
- relative viability (NCI-H650; first compound 8 µM): 0.39
- relative viability (NCI-H661; first compound 0.08 µM): 0.429
- relative viability (NCI-H661; first compound 0.253 µM): 0.41
- relative viability (NCI-H661; first compound 0.8 µM): 0.378
- relative viability (NCI-H661; first compound 2.53 µM): 0.374
- relative viability (NCI-H661; first compound 8 µM): 0.394
- relative viability (PC-3 [JPC-3]; first compound 0.08 µM): 0.54
- relative viability (PC-3 [JPC-3]; first compound 0.253 µM): 0.509
- relative viability (PC-3 [JPC-3]; first compound 0.8 µM): 0.515
- relative viability (PC-3 [JPC-3]; first compound 2.53 µM): 0.502
- relative viability (PC-3 [JPC-3]; first compound 8 µM): 0.568
- relative viability (RERF-LC-KJ; first compound 0.08 µM): 1.06
- relative viability (RERF-LC-KJ; first compound 0.253 µM): 1.12
- relative viability (RERF-LC-KJ; first compound 0.8 µM): 1.07
- relative viability (RERF-LC-KJ; first compound 2.53 µM): 1.03
- relative viability (RERF-LC-KJ; first compound 8 µM): 1.15
- relative viability (SK-MES-1; first compound 0.08 µM): 0.321
- relative viability (SK-MES-1; first compound 0.253 µM): 0.349
- relative viability (SK-MES-1; first compound 0.8 µM): 0.309
- relative viability (SK-MES-1; first compound 2.53 µM): 0.264
- relative viability (SK-MES-1; first compound 8 µM): 0.292
- relative viability (SW 1573; first compound 0.08 µM): 0.357
- relative viability (SW 1573; first compound 0.253 µM): 0.394
- relative viability (SW 1573; first compound 0.8 µM): 0.47
- relative viability (SW 1573; first compound 2.53 µM): 0.423
- relative viability (SW 1573; first compound 8 µM): 0.351
